The subject of one series is human erythrocytes. Description: Human erythrocyte hemolytic activity. To be noted: 37° C., 30 minutes. The procedure: In order to evaluate the acute toxicities of the Vespa velutina nigrithorax, V. simillima simillima Smith and V. mandarinia Smith extracts and the fractions thereof, the human erythrocyte hemolytic activities thereof were evaluated. At this time, the hemolytic activity was evaluated according to a previous report (Son Ho-Yong et al., 2014, Korean J. Microbiol. Biotechnol. 42: 285-292). Briefly, 100 μl of human erythrocytes were washed three times with PBS and added to a 96-well microplate, and 100 μl of a sample solution at various concentrations was added thereto and then allowed to react at 37° C. for 30 minutes. Thereafter, the reaction solution was centrifuged at 1,500 rpm for 10 minutes, and 100 μl of the supernatant was transferred to a fresh microtiter plate, and then the degree of hemoglobin leakage following hemolysis was measured at 414 nm. DMSO (2%) was used as a solvent control for the sample, and Triton X-100 (1 mg/ml) was used as an experimental control for hemolysis of erythrocytes. Hemolytic activity was calculated using the following equation.
(%) Hemolysis=[(Abs. S−Abs. C)/(Abs. T−Abs. C)]×100
Abs. S: absorbance of sample-added group
Abs. C: absorbance of DMSO-added group
Abs. T: absorbance of Triton X-100-added group

In series [1] the test system is gram-positive bacteria, gram-negative bacteria and fungi. In words: Disc-paper clear zone test, summary over the whole panel. To be noted: 1 μg/disc; span over the gram-positive and gram-negative bacteria; read-out: Clear zone size. Format: cell-based. The text has this: (§1) For evaluation of the antibacterial activities, the following strains were used: Escherichia coli KCTC 1682, Proteus vulgaris KCTC 2433, Pseudomonas aeruginosa KACC 10186, and Salmonella typhimurium KCTC 1926, which are Gram-negative bacteria, and Staphylococcus aureus KCTC 1916, Staphylococcus epidermidis ATCC 12228, and Listeria monocytogenes KACC 10550, Bacillus subtilis KCTC 1924, which are Gram-positive bacteria. Meanwhile, for evaluation of the antifungal activities, Saccharomyces cerevisiae IF0 0233 and Candida albicans KCTC 1940 that causes Candidiasis fungal infection were used.
First, for evaluation of the antibacterial activities, each bacterial strain was inoculated into nutrient broth (Difco Co., USA) and cultured at 37° C. for 24 hours. […] For evaluation of the antifungal activities, each fungal strain was cultured using Sabouraud dextrose (Difco Co. USA) at 30° C. for 24 hours in the same manner as described above, and the antifungal activity of each extract sample was evaluated by measuring the size of the clear zone. […] The size of the clear zone was measured by measuring, in units of mm, the diameter of the part where growth was invisible with the naked eye, and was expressed as a representative result after three or more evaluations.

Series [2] deals with Bacillus subtilis KCTC 1924. In words: Disc-paper clear zone test, antibacterial. To be noted: antibiotic 1 μg/disc; BS. It counts as cell-based. On the set-up: key: —: no clear zone.
Text: as §1
(§2) First, for evaluation of the antibacterial activities, each bacterial strain was inoculated into nutrient broth (Difco Co., USA) and cultured at 37° C. for 24 hours. Then, each strain was adjusted to an O.D.600 of 0.1, and then 100 μl of each strain was plated on a Petri dish (90 mm, Green Cross, Korea) containing nutrient agar (Difco Co., USA) medium, and 5 μl of each extract sample added to sterile disc-paper (6.5 mm diameter, Whatsman No. 2) was added to each strain which was then incubated at 37° C. for 24 hours. For evaluation of the antifungal activities, each fungal strain was cultured using Sabouraud dextrose (Difco Co. USA) at 30° C. for 24 hours in the same manner as described above, and the antifungal activity of each extract sample was evaluated by measuring the size of the clear zone. As a control, each of the antibacterial agent ampicillin and the antifungal agent miconazole (Sigma Co., USA) was at a concentration of 1 μg/disc. The size of the clear zone was measured by measuring, in units of mm, the diameter of the part where growth was invisible with the naked eye, and was expressed as a representative result after three or more evaluations.
(§3) The antimicrobial activities of the fraction of each of the Vespa velutina nigrithorax, V. simillima simillima Smith and V. mandarinia Smith extracts, prepared in Example 4, were measured according to the same method as the antibacterial and antifungal activity evaluation described in Example 3.

The test system of series [3] is Staphylococcus epidermidis ATCC 12228. In words: Disc-paper clear zone test, antibacterial. The following applies: antibiotic 1 μg/disc; SE. Set-up: key: —: no clear zone. Format: cell-based.
Text: as §1, §2, §3

Series [4] concerns Listeria monocytogenes KACC 10550. In words: Disc-paper clear zone test, antibacterial. Format: cell-based. Set-up: key: —: no clear zone. The following applies: antibiotic 1 μg/disc; LM.
Text: as §1, §2, §3

Series [5] concerns Escherichia coli KCTC 1682. Description: Disc-paper clear zone test, antibacterial. Set-up: key: —: no clear zone. Format: cell-based. The following applies: antibiotic 1 μg/disc; EC.
Text: as §1, §2, §3

Series [6] deals with Proteus vulgaris KCTC 2433. In words: Disc-paper clear zone test, antibacterial. Format: cell-based. Set-up: key: —: no clear zone. To be noted: antibiotic 1 μg/disc; PV.
Text: as §1, §2, §3

The test system of series [7] is Pseudomonas aeruginosa KACC 10186. In words: Disc-paper clear zone test, antibacterial. Format: cell-based. Set-up: key: —: no clear zone. To be noted: antibiotic 1 μg/disc; PA.
Text: as §1, §2, §3

The test system of series [8] is Staphylococcus aureus KCTC 1916. In words: Disc-paper clear zone test, antibacterial. It counts as cell-based. Set-up: key: —: no clear zone. To be noted: antibiotic 1 μg/disc; SA.
Text: as §1, §2, §3

Series [9] deals with Salmonella typhimurium KCTC 1926. Description: Disc-paper clear zone test, antibacterial. Format: cell-based. Set-up: key: —: no clear zone. To be noted: antibiotic 1 μg/disc; ST.
Text: as §1, §2, §3

The subject of series [10] is Saccharomyces cerevisiae IF0 0233. In words: Disc-paper clear zone test, antifungal. To be noted: antibiotic 1 μg/disc; SC. On the set-up: key: —: no clear zone. Format: cell-based.
Text: as §1, §2, §3

Series [11] concerns Candida albicans KCTC 1940. Description: Disc-paper clear zone test, antifungal. Format: cell-based. Set-up: key: —: no clear zone. The following applies: antibiotic 1 μg/disc; CA.
Text: as §1, §2, §3

This is an account of results in patent US20230051204A1, “ANTIMICROBIAL COMPOSITION CONTAINING WASP EXTRACT AS ACTIVE INGREDIENT” (priority 2021, published 2023).

Several values for one entry are separate records, joined by “and”; a condition that tells them apart may be missing. Identical values can stand only once.

On to `C[C@@H]1[C@H](O)[C@@H](C)/C=C/C=C/C=C/C=C/C=C/C=C/C=C/[C@H](O[C@@H]2O[C@H](C)[C@@H](O)[C@H](N)[C@@H]2O)C[C@@H]2O[C@](O)(C[C@@H](O)C[C@@H](O)[C@H](O)CC[C@@H](O)C[C@@H](O)CC(=O)O[C@H]1C)C[C@H](O)[C@H]2C(=O)O` [Amphotericin B], for which the “Human erythrocyte hemolytic activity” value with human erythrocytes (0.0032 mg/ml) is recorded as 6.5 ± 0.9%; with human erythrocytes (0.0063 mg/ml) it was 21.6 ± 3.7%; with human erythrocytes (0.0125 mg/ml), 48.2 ± 5.9%; in the series with human erythrocytes (0.05 mg/ml) it was 72.4 ± 5.2%; in the series on human erythrocytes (0.1 mg/ml) it was 95.8 ± 0.3%.
As for `CC1(C)S[C@@H]2[C@H](NC(=O)[C@H](N)c3ccccc3)C(=O)N2[C@H]1C(=O)O` [Ampicillin, ampicillin], the zone of inhibition at 1 µg/disc in [1] is 9 to 30 mm. The Clear zone in [2] came to 23.5 mm; in [3], 20.0 mm; in series [4], 26.0 mm; in series [5], 9.0 mm; in series [6] it was 30.0 mm; in series [7], 16.0 mm. The Clear zone in [8] is 26.0 mm; in series [9], 20.0 mm; in series [10], “—”; in [11] it was “—”.
Regarding `Clc1ccc(COC(Cn2ccnc2)c2ccc(Cl)cc2Cl)c(Cl)c1` (stereo not drawn) [Miconazole, miconazole], the Clear zone result in [2], in series [3], in series [4], in series [5], in series [6] and in series [7] was “—” each time. The Clear zone result was “—” in [8], “—” in [9], 8.5 mm in series [10] and 8.5 mm in series [11].
For Triton X-100, the “Human erythrocyte hemolytic activity” value in the series on human erythrocytes (1.0 mg/ml) was 100% and 100.0 ± 0.1%.
